Data reported in article PMC9258070, “Establishment and evaluation of glucose-modified nanocomposite liposomes for the treatment of cerebral malaria” (Journal of Nanobiotechnology, 2022).
Structures can show the parent of a compound that is named as a salt.

Assays:
[1] = Brain biodistribution study (LC-MS); conditions: C57BL/6, mouse
Experimental: (§1) The C57BL/6 mouse cerebral malaria model was established according to the method of “In vivo antimalarial experiment”. The model mice were randomly divided into the intranasal administration group (na-ATS/TMP@lipoBX) and tail vein injection group (iv-ATS/TMP@lipoBX). The dosage of each administration group was artesunate (ATS) 15.6 mg/kg and tetramethylpyrazine hydrochloride (TMP) 20.8 mg/kg.
Mice were euthanized and the brains were dissected. The brain samples were homogenized by adding 4 times their weight of physiological saline to prepare a tissue homogenate. The brain homogenates were processed according to the processing method for the plasma sample, and LC–MS quantitative analysis was carried out.
(§2) LC conditions were as follows: column: Waters UPLC BEH C18 column (1.7 μm, 2.1 mm × 50 mm); mobile phase: water (0.1% formic acid and 5 mM ammonium formate)-acetonitrile (85:15, v/v), flow rate: 0.3 ml/min; column temperature: 35 ℃. Mass spectrum conditions were as follows: electric spray ion source (ESI); multiple response monitoring (MRM) mode; positive ion scanning mode; air curtain pressure (N2) was 40 psi, impact air pressure (N2) was 9 psi, atomization gas pressure (N2) was 55 psi, auxiliary gas pressure (N2) was 55 psi; spray voltage was 5500 V; atomization temperature was 550 ℃.

[2] = Pharmacokinetic study in plasma (LC-MS); conditions: C57BL/6, mouse
Experimental: as §1
Blood samples were collected at 5 min, 10 min, 15 min, 30 min, 45 min, 1 h, 2 h, 4 h, 8 h, 12 h and 24 h after administration. These samples were immediately placed in a tube containing heparin sodium (1000 U/mL). Plasma samples were obtained after centrifugation at 4000 rpm for 10 min and an esterase inhibitor was added to the samples. Subsequently, methanol was added to the plasma in the ratio of 1:2 (plasma-methanol) and centrifuged at 14,000 rpm for 5 min to obtain liquid supernatant for quantitative analysis by LC–MS.
as §2

[3] = Solubility of the conjugate (description); format: physicochemical

SMILES | bioavailability ([2]; in vivo) | Tmax ([1]; brain, inhaled or intranasal) | Tmax ([1]; brain, iv) | bioavailability ([1]; brain, other: intranasal) | further results
Cc1nc(C)c(C)nc1C [TMP, tetramethylpyrazine hydrochloride] | ~97% |  |  |  | bioavailability ([1]; in vivo): ~183%; Tmax ([1]; in vivo, inhaled or intranasal): 4.98 min; Tmax ([1]; in vivo, iv): 4.98 min; Tmax ([2]; in vivo, inhaled or intranasal): 4.98 min; Tmax ([2]; in vivo, iv): 6.24 ± 2.52 min
C[C@H]1[C@H](OC(=O)CCC(=O)O)O[C@@H]2O[C@@]3(C)CC[C@H]4[C@H](C)CC[C@@H]1[C@@]24OO3 [ATS, artesunate] | ~91% | 210 ± 60 min | 495 ± 311 min | ~415% | Tmax ([2]; plasma, inhaled or intranasal): 144 ± 225 min; Tmax ([2]; plasma, iv): 17.5 ± 18.5 min
CC(C)CCCC(C)C1CCC2C3CC=C4CC(OC(=O)CCCCCCCCCCOc5ccc(OC6OC(CO)C(O)C(O)C6O)cc5)CCC4(C)C3CCC12C (stereo not shown) [cholesterol-undecanoate-glucose conjugate] |  |  |  |  | solubility [3]: soluble in ethanol and tetrahydrofuran
C[C@H]1[C@@H](O)O[C@@H]2O[C@@]3(C)CC[C@H]4[C@H](C)CC[C@@H]1[C@@]24OO3 [DHA, dihydroartemisinin] |  | 23.8 ± 17 min | 7.5 ± 2.88 min | ~449% | 
